Results reported in US8486464B2, “Herbal composition for angina pectoris, method to prepare same and uses thereof” (Tasly Pharmaceutical Group Co. Ltd., priority 2000, dated 2013).

Columns and labels:
Format in all cases: in vivo
myocardial infarction = test: Dog myocardial infarction area (N-BT); conditions: dogs; Dan Shen Pill 2 g/kg, Ditiazem 5 mg/kg
Description: (§1) 1.1 Experimental Groups. (1) Blank control group, normal saline 3 ml/kg; (2) DSP group, 2 g natural drug/kg; (3) positive control group, Ditiazem, 5 mg/kg. All the above samples are diluted with normal saline to the same volume of 3 ml/kg and were given to the patient through the duodenum.
The hearts were removed 180 mins after treatment and weighed, cut into slices, and colored with N-BT. The infarction area of each slice (N-BT-uncolorized area) and non-infarction area (N-BT colorized area) were measured. The percentage occupied by the infarction area in the ventricles was calculated and the whole heart was weighted.
(§2) The significance of the experimental results was tested by the t-testing method.

ET, TXB2, 6-Keto-PGF1α = test: Dog plasma ET, TXB2, 6-Keto-PGF1α; design: 6-Keto-PGF1α: unit not given beside the values; conditions: dogs, Dan Shen Pill 2 g/kg, Diltiazem 5 mg/kg
Description: as §1
(§3) 1.2 Experimental Method. The dogs are anesthetized with pentobarbital sodium. Chests were opened and coronary arterioles and the central part of the dorsal lower branch separated and tied to create an acute myocardial ischemia model. ECGs were recorded and the level of myocardial ischemia (increased section ST, ST) and area of myocardial ischemia (the total increased decimal places in section ST) were calculated. The oxygen content in the coronary artery was recorded. Blood serum creatine kinase (CK), lactate dehydrogenase (LDH), ET, TXB2 and 6-Keto-PGF1 were measured. The oxygen content of the aorta and coronary vein, and blood flow volume in the coronary arteries were measured to calculate myocardial oxygen consumption. Blood oxygen content in the coronary vein was measured to calculate myocardial oxygen content (myocardial oxygen content=(blood oxygen content in arteries-blood oxygen content in coronary veins)×blood flow volume in coronary artery/100).

[1] = system: venous blood oxygen content; test: Dog coronary venous blood oxygen content; conditions: dogs, Dan Shen Pill 2 g/kg, Ditiazem 5 mg/kg
Description: as §1, §3

SOD, MDA = test: Rat M-IR damage: SOD activity and MDA content in blood serum; conditions: Wistar, 2 hrs after duodenal dosing, DSP 3.0 g/kg, Ditiazem 30 mg/kg
Description: (1) Experimental Groups. Control group (Serum taken as normal control), Model group (Normal Saline), Ditiazem group (30 mg/kg), DSP 6.0, 3.0 g/kg group. Each group was diluted to its necessary concentration with 3 ml/kg normal saline through the duodenum.
(2) Experimental Method. Wistar animal is anesthetized by pentobarbital sodium and fixed. Chests and cardial membranes are opened to expose the heart. A hole in the left lower dorsal part of the coronary artery is left for tying. Separate the duodenum, and infuse the tested drugs into it. Take blood from the abdomen after 2 hrs and test the MDA and SOD content in the blood serum.

myocardial ischemia = test: Dog acute myocardial ischemia: level and area by ECG (Σ-ST, N-ST); conditions: dogs, Dan Shen Pill 2 g/kg, Ditiazem 5 mg/kg
Description: as §1, §3, §2

SMILES: COc1ccc([C@@H]2Sc3ccccc3N(CCN(C)C)C(=O)[C@@H]2OC(C)=O)cc1 [Ditiazem]
- Area of Cardiac Chamber (myocardial infarction): 5377.8 ± 411.2 mm2
- Area of Infarction (myocardial infarction): 378.98 ± 138.41 mm2
- Infarction Location/Cardiac Chamber (myocardial infarction): 7.22 ± 2.87
- Infarction Location/Heart (myocardial infarction): 2.52 ± 1.35
- Myocardial area (myocardial infarction): 14096.5 ± 3056.4 mm2
- 6-Keto-PGF1α (ET, TXB2, 6-Keto-PGF1α; 30 min after dosage): 1749.4 ± 278.3
- 6-Keto-PGF1α, changing in percentage (before dosage = 100%) (ET, TXB2, 6-Keto-PGF1α; 30 min after dosage): 118.95 ± 14.47 %
- ET, changing in percentage (before dosage = 100%) (ET, TXB2, 6-Keto-PGF1α; 30 min after dosage): 85.14 ± 13.98 %
- TXB2, changing in percentage (before dosage = 100%) (ET, TXB2, 6-Keto-PGF1α; 30 min after dosage): 101.14 ± 17.90 %
- blood plasma ET (ET, TXB2, 6-Keto-PGF1α; 30 min after dosage): 47.51 ± 7.39 pg/mL
- blood plasma TXB2 (ET, TXB2, 6-Keto-PGF1α; 30 min after dosage): 143.40 ± 28.64 pg/mL
- 6-Keto-PGF1α (ET, TXB2, 6-Keto-PGF1α; 60 min after dosage): 1902.6 ± 155.1
- 6-Keto-PGF1α, changing in percentage (before dosage = 100%) (ET, TXB2, 6-Keto-PGF1α; 60 min after dosage): 131.19 ± 16.98 %
- ET, changing in percentage (before dosage = 100%) (ET, TXB2, 6-Keto-PGF1α; 60 min after dosage): 84.06 ± 18.24 %
- TXB2, changing in percentage (before dosage = 100%) (ET, TXB2, 6-Keto-PGF1α; 60 min after dosage): 92.58 ± 15.17 %
- blood plasma ET (ET, TXB2, 6-Keto-PGF1α; 60 min after dosage): 46.38 ± 9.02 pg/mL
- blood plasma TXB2 (ET, TXB2, 6-Keto-PGF1α; 60 min after dosage): 134.40 ± 46.48 pg/mL
- 6-Keto-PGF1α (ET, TXB2, 6-Keto-PGF1α; 90 min after dosage): 1912.4 ± 258.5
- 6-Keto-PGF1α, changing in percentage (before dosage = 100%) (ET, TXB2, 6-Keto-PGF1α; 90 min after dosage): 132.75 ± 28.52 %
- ET, changing in percentage (before dosage = 100%) (ET, TXB2, 6-Keto-PGF1α; 90 min after dosage): 71.69 ± 12.10 %
- TXB2, changing in percentage (before dosage = 100%) (ET, TXB2, 6-Keto-PGF1α; 90 min after dosage): 69.72 ± 8.76 %
- blood plasma ET (ET, TXB2, 6-Keto-PGF1α; 90 min after dosage): 39.97 ± 7.95 pg/mL
- blood plasma TXB2 (ET, TXB2, 6-Keto-PGF1α; 90 min after dosage): 1093.4 ± 320.9 pg/mL
- 6-Keto-PGF1α (ET, TXB2, 6-Keto-PGF1α; 120 min after dosage): 1982.8 ± 574.2
- 6-Keto-PGF1α, changing in percentage (before dosage = 100%) (ET, TXB2, 6-Keto-PGF1α; 120 min after dosage): 139.39 ± 56.36 %
- ET, changing in percentage (before dosage = 100%) (ET, TXB2, 6-Keto-PGF1α; 120 min after dosage): 74.30 ± 17.04 %
- TXB2, changing in percentage (before dosage = 100%) (ET, TXB2, 6-Keto-PGF1α; 120 min after dosage): 63.03 ± 14.20 %
- blood plasma ET (ET, TXB2, 6-Keto-PGF1α; 120 min after dosage): 41.42 ± 15.69 pg/mL
- blood plasma TXB2 (ET, TXB2, 6-Keto-PGF1α; 120 min after dosage): 1284.1 ± 695.0 pg/mL
- 6-Keto-PGF1α (ET, TXB2, 6-Keto-PGF1α; 180 min after dosage): 1705.2 ± 412.2
- 6-Keto-PGF1α, changing in percentage (before dosage = 100%) (ET, TXB2, 6-Keto-PGF1α; 180 min after dosage): 119.08 ± 39.78%
- ET, changing in percentage (before dosage = 100%) (ET, TXB2, 6-Keto-PGF1α; 180 min after dosage): 82.16 ± 14.09 %
- TXB2, changing in percentage (before dosage = 100%) (ET, TXB2, 6-Keto-PGF1α; 180 min after dosage): 62.77 ± 14.51 %
- blood plasma ET (ET, TXB2, 6-Keto-PGF1α; 180 min after dosage): 45.74 ± 9.40 pg/mL
- blood plasma TXB2 (ET, TXB2, 6-Keto-PGF1α; 180 min after dosage): 1032.7 ± 343.1 pg/mL
- 6-Keto-PGF1α (ET, TXB2, 6-Keto-PGF1α; after hypoxia before dosage): 1478.8 ± 218.6
- 6-Keto-PGF1α, changing in percentage (ET, TXB2, 6-Keto-PGF1α; after hypoxia before dosage): 92.3 ± 5.53%
- ET, changing in percentage (ET, TXB2, 6-Keto-PGF1α; after hypoxia before dosage): 178.30 ± 57.33%
- TXB2, changing in percentage (ET, TXB2, 6-Keto-PGF1α; after hypoxia before dosage): 101.14 ± 19.90 %
- blood plasma ET (ET, TXB2, 6-Keto-PGF1α; after hypoxia before dosage): 55.51 ± 3.59 pg/mL
- blood plasma TXB2 (ET, TXB2, 6-Keto-PGF1α; after hypoxia before dosage): 143.40 ± 28.64 pg/mL
- 6-Keto-PGF1α (ET, TXB2, 6-Keto-PGF1α; before hypoxia (normal value)): 1597.4 ± 185.3
- blood plasma ET (ET, TXB2, 6-Keto-PGF1α; before hypoxia (normal)): 34.41 ± 9.41 pg/mL
- blood plasma TXB2 (ET, TXB2, 6-Keto-PGF1α; before hypoxia (normal)): 106.40 ± 19.12 pg/mL
- VO2, changing percentage (before dosage = 100%) ([1]; 30 min after dosage): 97.70 ± 10.36%
- venous oxygen volume (VO2) ([1]; 30 min after dosage): 16.08 ± 1.13 ml %
- VO2, changing percentage (before dosage = 100%) ([1]; 60 min after dosage): 95.95 ± 8.27%
- venous oxygen volume (VO2) ([1]; 60 min after dosage): 15.84 ± 1.43 ml %
- VO2, changing percentage (before dosage = 100%) ([1]; 90 min after dosage): 96.37 ± 5.54%
- venous oxygen volume (VO2) ([1]; 90 min after dosage): 15.92 ± 1.29 ml %
- VO2, changing percentage (before dosage = 100%) ([1]; 120 min after dosage): 92.15 ± 9.42%
- venous oxygen volume (VO2) ([1]; 120 min after dosage): 15.20 ± 1.50 ml %
- VO2, changing percentage (before dosage = 100%) ([1]; 180 min after dosage): 89.62 ± 11.94%
- venous oxygen volume (VO2) ([1]; 180 min after dosage): 14.82 ± 2.28 ml %
- venous oxygen volume (VO2) ([1]; after hypoxia (value before dosage)): 16.56 ± 1.61 ml %
- VO2, changing percentage ([1]; after hypoxia, before dosage): 111.45 ± 33.86%
- venous oxygen volume (VO2) ([1]; before hypoxia (normal value)): 15.44 ± 2.42 ml %
- MDA, blood serum (SOD, MDA): 5.29 ± 1.07 (μ mol/L) × 10^−3
- SOD, blood serum (SOD, MDA): 817.6 ± 115.6 U/ml
- N-ST (myocardial ischemia; 15 min after dosage): 29.80
- N-ST, changing in percentage (before dosage = 100%) (myocardial ischemia; 15 min after dosage): 99.33%
- Σ-ST (myocardial ischemia; 15 min after dosage): 277.80
- Σ-ST, changing in percentage (before dosage = 100%) (myocardial ischemia; 15 min after dosage): 91.83%
- N-ST (myocardial ischemia; 30 min after dosage): 29.60
- N-ST, changing in percentage (before dosage = 100%) (myocardial ischemia; 30 min after dosage): 98.67%
- Σ-ST (myocardial ischemia; 30 min after dosage): 226.20
- Σ-ST, changing in percentage (before dosage = 100%) (myocardial ischemia; 30 min after dosage): 74.87%
- N-ST (myocardial ischemia; 45 min after dosage): 29.20
- N-ST, changing in percentage (before dosage = 100%) (myocardial ischemia; 45 min after dosage): 97.33%
- Σ-ST (myocardial ischemia; 45 min after dosage): 213.40
- Σ-ST, changing in percentage (before dosage = 100%) (myocardial ischemia; 45 min after dosage): 70.59%
- N-ST (myocardial ischemia; 60 min after dosage): 28.40
- N-ST, changing in percentage (before dosage = 100%) (myocardial ischemia; 60 min after dosage): 94.67%
- Σ-ST (myocardial ischemia; 60 min after dosage): 186.20
- Σ-ST, changing in percentage (before dosage = 100%) (myocardial ischemia; 60 min after dosage): 61.61%
- N-ST (myocardial ischemia; 90 min after dosage): 27.00
- N-ST, changing in percentage (before dosage = 100%) (myocardial ischemia; 90 min after dosage): 90.00%
- Σ-ST (myocardial ischemia; 90 min after dosage): 175.20
- Σ-ST, changing in percentage (before dosage = 100%) (myocardial ischemia; 90 min after dosage): 57.95%
- N-ST (myocardial ischemia; 120 min after dosage): 26.80
- N-ST, changing in percentage (before dosage = 100%) (myocardial ischemia; 120 min after dosage): 89.33%
- Σ-ST (myocardial ischemia; 120 min after dosage): 468.00
- Σ-ST, changing in percentage (before dosage = 100%) (myocardial ischemia; 120 min after dosage): 55.60%
- N-ST (myocardial ischemia; 180 min after dosage): 25.20
- N-ST, changing in percentage (before dosage = 100%) (myocardial ischemia; 180 min after dosage): 84.00%
- Σ-ST (myocardial ischemia; 180 min after dosage): 122.80
- Σ-ST, changing in percentage (before dosage = 100%) (myocardial ischemia; 180 min after dosage): 40.63%
- N-ST (myocardial ischemia; before dosage): 30.00
- Σ-ST (myocardial ischemia; before dosage): 302.80
